Laboratory results: patent publication US7994140B2, “Classes of compounds that interact with GPCRs” (Alchemia Limited, priority 2002, dated 2011)

Biological target: T1, MC4 (Homo sapiens, UniProt P32245)
T1 construct: purchased Perkin Elmer BioSignal; host or cells: HEK 293
Assay: GPCR radioligand binding (RLB) assay, melanocortin MC4, [125I]NDP-αMSH
Details: 4.0 Micromolar
Outline: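 Competition binding against radioligand ([125I]NDP-αMSH for MC4, [125I]SST-14 for SST5) on membranes of HEK 293 cells carrying the human receptor; buffer and incubation time optimized per receptor. Filtration through 0.5% PEI-treated glass fiber, washing, then scintillation counting.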

T1 sequence (P32245 whole entry): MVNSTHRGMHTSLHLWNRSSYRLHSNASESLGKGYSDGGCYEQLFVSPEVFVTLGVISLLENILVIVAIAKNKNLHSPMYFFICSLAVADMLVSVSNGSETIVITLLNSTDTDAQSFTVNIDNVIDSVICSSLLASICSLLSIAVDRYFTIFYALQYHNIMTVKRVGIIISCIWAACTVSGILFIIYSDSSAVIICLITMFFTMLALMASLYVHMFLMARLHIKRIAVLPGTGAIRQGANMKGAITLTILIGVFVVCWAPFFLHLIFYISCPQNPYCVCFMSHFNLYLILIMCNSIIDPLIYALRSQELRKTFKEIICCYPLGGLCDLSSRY

Row | SMILES | MC4 Inhibition at 4.0 Micromolar (Example Library 12) | MC4 Inhibition at 4.0 Micromolar (Example Library 13)
1 | N=C(N)NCCC(=O)N[C@H]1C(OCc2ccccc2)O[C@H](COCc2ccccc2)[C@@H](O)[C@@H]1OCc1ccc2ccccc2c1 (stereo partly shown) [Compound 453] | + (Indicates inhibition greater than . . . 50%) | –
2 | N=C(N)NCCC(=O)N[C@H]1C(OCc2ccccc2)O[C@H](COCc2ccccc2)[C@@H](O)[C@@H]1OCc1ccc2ccccc2c1 (stereo partly shown) [Compound 454] | + (Indicates inhibition greater than . . . 50%) | –
3 | N=C(N)NCCC(=O)N[C@H]1C(OCc2ccccc2)O[C@H](COCc2ccc(Cl)cc2)[C@@H](O)[C@@H]1OCc1ccc2ccccc2c1 (stereo partly shown) [Compound 455] | + (Indicates inhibition greater than . . . 50%) | –
4 | N=C(N)NCCC(=O)N[C@H]1C(OCc2ccccc2)O[C@H](COCc2ccc(Cl)cc2)[C@@H](O)[C@@H]1OCc1ccc2ccccc2c1 (stereo partly shown) [Compound 456] | + (Indicates inhibition greater than . . . 50%) | –
5 | N=C(N)NCCC(=O)N[C@H]1C(OCc2ccccc2)O[C@H](COCc2ccc3ccccc3c2)[C@@H](O)[C@@H]1OCc1ccc(-c2ccccc2)cc1 (stereo partly shown) [Compound 457] | + (Indicates inhibition greater than . . . 50%) | –
6 | N=C(N)NCCC(=O)N[C@H]1C(OCc2ccccc2)O[C@H](COCc2ccc3ccccc3c2)[C@@H](O)[C@@H]1OCc1ccc(-c2ccccc2)cc1 (stereo partly shown) [Compound 458] | + (Indicates inhibition greater than . . . 50%) | –
7 | N=C(N)NCCC(=O)N[C@H]1C(OCc2ccccc2)O[C@H](COCc2ccccc2)[C@@H](O)[C@@H]1OCc1ccc(-c2ccccc2)cc1 (stereo partly shown) [Compound 459] | + (Indicates inhibition greater than . . . 50%) | –
8 | N=C(N)NCCC(=O)N[C@H]1C(OCc2ccccc2)O[C@H](COCc2ccc(Cl)cc2)[C@@H](O)[C@@H]1OCc1ccc(-c2ccccc2)cc1 (stereo partly shown) [Compound 460] | + (Indicates inhibition greater than . . . 50%) | –
9 | N=C(N)NCCC(=O)N[C@H]1C(OCc2ccccc2)O[C@H](COCc2ccc(Cl)cc2)[C@@H](O)[C@@H]1OCc1ccc(-c2ccccc2)cc1 (stereo partly shown) [Compound 461] | + (Indicates inhibition greater than . . . 50%) | –
10 | N=C(N)NCCC(=O)N[C@H]1C(OCc2ccccc2)O[C@H](COCCc2ccccc2)[C@@H](O)[C@@H]1OCc1ccc(-c2ccccc2)cc1 (stereo partly shown) [Compound 462] | + (Indicates inhibition greater than . . . 50%) | –
11 | N=C(N)NCC(=O)N[C@H]1C(OCc2ccc(-c3ccccc3)cc2)O[C@H](COCc2ccc3ccccc3c2)[C@@H](O)[C@H]1OCc1ccc(Cl)cc1 (stereo partly shown) [Compound 463] | – | + (Indicates inhibition greater than . . . 50%)
12 | N=C(N)NCC(=O)N[C@H]1C(OCc2ccc(-c3ccccc3)cc2)O[C@H](COCc2ccccc2)[C@@H](O)[C@H]1OCc1ccc(Cl)cc1 (stereo partly shown) [Compound 464] | – | + (Indicates inhibition greater than . . . 50%)
13 | N=C(N)NCC(=O)N[C@H]1C(OCc2ccc(-c3ccccc3)cc2)O[C@H](COCc2ccc(Cl)cc2)[C@@H](O)[C@H]1OCc1ccc(Cl)cc1 (stereo partly shown) [Compound 465] | – | + (Indicates inhibition greater than . . . 50%)
14 | N=C(N)NCC(=O)N[C@H]1C(OCc2ccc(-c3ccccc3)cc2)O[C@H](COCc2ccccc2)[C@@H](O)[C@H]1OCc1ccc2ccccc2c1 (stereo partly shown) [Compound 466] | – | + (Indicates inhibition greater than . . . 50%)
15 | N=C(N)NCC(=O)N[C@H]1C(OCc2ccc(-c3ccccc3)cc2)O[C@H](COCc2ccc(Cl)cc2)[C@@H](O)[C@H]1OCc1ccc2ccccc2c1 (stereo partly shown) [Compound 467] | – | + (Indicates inhibition greater than . . . 50%)
16 | N=C(N)NCC(=O)N[C@H]1C(OCc2ccc(-c3ccccc3)cc2)O[C@H](COCc2ccccc2)[C@@H](O)[C@H]1OCc1ccc(-c2ccccc2)cc1 (stereo partly shown) [Compound 468] | – | + (Indicates inhibition greater than . . . 50%)
17 | N=C(N)NCC(=O)N[C@H]1C(OCc2ccc(-c3ccccc3)cc2)O[C@H](COCc2ccc(Cl)cc2)[C@@H](O)[C@H]1OCc1ccc(-c2ccccc2)cc1 (stereo partly shown) [Compound 469] | – | + (Indicates inhibition greater than . . . 50%)
18 | N=C(N)NCCC(=O)N[C@H]1C(OCc2ccc(-c3ccccc3)cc2)O[C@H](COCc2ccc3ccccc3c2)[C@@H](O)[C@H]1OCc1ccc(Cl)cc1 (stereo partly shown) [Compound 470] | – | + (Indicates inhibition greater than . . . 50%)
19 | N=C(N)NCCC(=O)N[C@H]1C(OCc2ccc(-c3ccccc3)cc2)O[C@H](COCc2ccccc2)[C@@H](O)[C@H]1OCc1ccc(Cl)cc1 (stereo partly shown) [Compound 471] | – | + (Indicates inhibition greater than . . . 50%)
20 | N=C(N)NCCC(=O)N[C@H]1C(OCc2ccc(-c3ccccc3)cc2)O[C@H](COCc2ccc(Cl)cc2)[C@@H](O)[C@H]1OCc1ccc(Cl)cc1 (stereo partly shown) [Compound 472] | – | + (Indicates inhibition greater than . . . 50%)
21 | N=C(N)NCCC(=O)N[C@H]1C(OCc2ccc(-c3ccccc3)cc2)O[C@H](COCc2ccc3ccccc3c2)[C@@H](O)[C@H]1OCc1ccc2ccccc2c1 (stereo partly shown) [Compound 473] | – | + (Indicates inhibition greater than . . . 50%)
22 | N=C(N)NCCC(=O)N[C@H]1C(OCc2ccc(-c3ccccc3)cc2)O[C@H](COCc2ccccc2)[C@@H](O)[C@H]1OCc1ccc2ccccc2c1 (stereo partly shown) [Compound 474] | – | + (Indicates inhibition greater than . . . 50%)

Row | SMILES | MC4 Inhibition at 4.0 Micromolar (Example Library 12) | MC4 Inhibition at 4.0 Micromolar (Example Library 13)
23 | N=C(N)NCCC(=O)N[C@H]1C(OCc2ccc(-c3ccccc3)cc2)O[C@H](COCc2ccc(Cl)cc2)[C@@H](O)[C@H]1OCc1ccc2ccccc2c1 (stereo partly shown) [Compound 475] | – | + (Indicates inhibition greater than . . . 50%)
24 | N=C(N)NCCC(=O)N[C@H]1C(OCc2ccc(-c3ccccc3)cc2)O[C@H](COCc2ccc3ccccc3c2)[C@@H](O)[C@H]1OCc1ccc(-c2ccccc2)cc1 (stereo partly shown) [Compound 476] | – | + (Indicates inhibition greater than . . . 50%)
25 | N=C(N)NCCC(=O)N[C@H]1C(OCc2ccc(-c3ccccc3)cc2)O[C@H](COCc2ccccc2)[C@@H](O)[C@H]1OCc1ccc(-c2ccccc2)cc1 (stereo partly shown) [Compound 477] | – | + (Indicates inhibition greater than . . . 50%)
26 | N=C(N)NCCC(=O)N[C@H]1C(OCc2ccc(-c3ccccc3)cc2)O[C@H](COCc2ccc(Cl)cc2)[C@@H](O)[C@H]1OCc1ccc(-c2ccccc2)cc1 (stereo partly shown) [Compound 478] | – | + (Indicates inhibition greater than . . . 50%)
27 | N=C(N)NCC(=O)N[C@H]1C(OCc2ccc(Cl)cc2)O[C@H](COCc2ccc3ccccc3c2)[C@@H](O)[C@H]1OCc1ccc(Cl)cc1 (stereo partly shown) [Compound 479] | – | + (Indicates inhibition greater than . . . 50%)
28 | N=C(N)NCC(=O)N[C@H]1C(OCc2ccc(Cl)cc2)O[C@H](COCc2ccccc2)[C@@H](O)[C@H]1OCc1ccc(Cl)cc1 (stereo partly shown) [Compound 480] | – | + (Indicates inhibition greater than . . . 50%)
29 | N=C(N)NCC(=O)NC1C(OCc2ccc(Cl)cc2)OC(COCc2ccc(Cl)cc2)C(O)C1OCc1ccc(Cl)cc1 (stereo not shown) [Compound 481] | – | + (Indicates inhibition greater than . . . 50%)
30 | N=C(N)NCC(=O)NC1C(OCc2ccc(Cl)cc2)OC(COCc2ccc3ccccc3c2)C(O)C1OCc1ccc2ccccc2c1 (stereo not shown) [Compound 482] | – | + (Indicates inhibition greater than . . . 50%)
31 | N=C(N)NCC(=O)NC1C(OCc2ccc(Cl)cc2)OC(COCc2ccccc2)C(O)C1OCc1ccc2ccccc2c1 (stereo not shown) [Compound 483] | – | + (Indicates inhibition greater than . . . 50%)
32 | N=C(N)NCC(=O)NC1C(OCc2ccc(Cl)cc2)OC(COCc2ccc(Cl)cc2)C(O)C1OCc1ccc2ccccc2c1 (stereo not shown) [Compound 484] | – | + (Indicates inhibition greater than . . . 50%)
33 | N=C(N)NCC(=O)NC1C(OCc2ccc(Cl)cc2)OC(COCc2ccc3ccccc3c2)C(O)C1OCc1ccc(-c2ccccc2)cc1 (stereo not shown) [Compound 485] | – | + (Indicates inhibition greater than . . . 50%)
34 | N=C(N)NCC(=O)NC1C(OCc2ccc(Cl)cc2)OC(COCc2ccccc2)C(O)C1OCc1ccc(-c2ccccc2)cc1 (stereo not shown) [Compound 486] | – | + (Indicates inhibition greater than . . . 50%)
35 | N=C(N)NCC(=O)NC1C(OCc2ccc(Cl)cc2)OC(COCc2ccc(Cl)cc2)C(O)C1OCc1ccc(-c2ccccc2)cc1 (stereo not shown) [Compound 487] | – | + (Indicates inhibition greater than . . . 50%)
36 | N=C(N)NCCC(=O)NC1C(OCc2ccc(Cl)cc2)OC(COCc2ccc3ccccc3c2)C(O)C1OCc1ccc(Cl)cc1 (stereo not shown) [Compound 488] | – | + (Indicates inhibition greater than . . . 50%)
37 | N=C(N)NCCC(=O)NC1C(OCc2ccc(Cl)cc2)OC(COCc2ccccc2)C(O)C1OCc1ccc(Cl)cc1 (stereo not shown) [Compound 489] | – | + (Indicates inhibition greater than . . . 50%)
38 | N=C(N)NCCC(=O)NC1C(OCc2ccc(Cl)cc2)OC(COCc2ccc(Cl)cc2)C(O)C1OCc1ccc(Cl)cc1 (stereo not shown) [Compound 490] | – | + (Indicates inhibition greater than . . . 50%)
39 | N=C(N)NCCC(=O)NC1C(OCc2ccc(Cl)cc2)OC(COCc2ccc3ccccc3c2)C(O)C1OCc1ccc2ccccc2c1 (stereo not shown) [Compound 491] | – | + (Indicates inhibition greater than . . . 50%)
40 | N=C(N)NCCC(=O)NC1C(OCc2ccc(Cl)cc2)OC(COCc2ccccc2)C(O)C1OCc1ccc2ccccc2c1 (stereo not shown) [Compound 492] | – | + (Indicates inhibition greater than . . . 50%)
41 | N=C(N)NCCC(=O)NC1C(OCc2ccc(Cl)cc2)OC(COCc2ccc(Cl)cc2)C(O)C1OCc1ccc2ccccc2c1 (stereo not shown) [Compound 493] | – | + (Indicates inhibition greater than . . . 50%)
42 | N=C(N)NCCC(=O)NC1C(OCc2ccc(Cl)cc2)OC(COCc2ccc3ccccc3c2)C(O)C1OCc1ccc(-c2ccccc2)cc1 (stereo not shown) [Compound 494] | – | + (Indicates inhibition greater than . . . 50%)
43 | N=C(N)NCCC(=O)NC1C(OCc2ccc(Cl)cc2)OC(COCc2ccccc2)C(O)C1OCc1ccc(-c2ccccc2)cc1 (stereo not shown) [Compound 495] | – | + (Indicates inhibition greater than . . . 50%)
